From patent US20170176477A1 (Metanomics Health GmbH, priority 2012, published 2017)
Like-named read-outs stand apart in the source and are kept apart here.

Columns and labels:
[1] = rat, in vivo
Procedure: (§1) Animals accessed feed and water ad libitum.
(§2) For mass spectrometry-based MxP™ Broad Profiling analyses samples were extracted by a proprietary method yielding a lipid and polar fraction which were used for GC-MS (gas chromatography-mass spectrometry) and LC-MS/MS (liquid chromatography-MS/MS) analyses, respectively. For GC-MS analytics the samples were sequentially derivatized before measurement and the non-polar fraction was treated with methanol under acidic conditions to yield the fatty acid methyl esters derived from both free fatty acids and hydrolyzed complex lipids. The non-polar and polar fractions were further derivatized before GC-MS analysis (Roessner et al., Technical advance: simultaneous analysis of metabolites in potato tuber by gas chromatography-mass spectrometry. Plant J. 2000; 23:131-42). In LC-MS/MS analysis a metanomics proprietary technology was applied which allows target and high sensitivity MRM (Multiple Reaction Monitoring) profiling in parallel to full scan analyses (patent WO2003073464). For LC-MS analysis, both fractions were reconstituted in appropriate solvent mixtures. HPLC (high-performance liquid chromatography) was performed on reversed phase separation columns. Data were normalized by the corresponding median of reference samples which derived from a pool formed from aliquots of all samples to account for inter- and intra-instrumental variation. Therefore, pool-normalized semi-quantitative metabolite data were obtained.

[2] = Metabolite profiling of plasma (GC-MS and LC-MS/MS) of rats treated with APAP vs. vehicle; conditions: for plasma metabolite in treated (1250 mg/kg) vs. untreated animals: FIG. 1, rats, 1250 mg/kg APAP vs. vehicle, most obvious at 6 and 24 hours; for 1250 mg vs. 0 mg (6 h) Ratio / 1250 mg vs. 0 mg (3 d) Ratio / 1250 mg vs. 0 mg (7 d) Ratio: rat plasma metabolite level, treated with 1250 mg/kg APAP vs. untreated, ANOVA; for 1250 mg vs. 0 mg (3 d) Ratio: 3 days; for 1250 mg vs. 0 mg (7 d) Ratio: 7 days
Procedure: as §1, §2

mouse liver tissue = conditions: cited from earlier work
mouse/rat liver tissue = conditions: after administration of hepatotoxic doses of carbon tetrachloride; cited from earlier work

Molecule	differences between the test and the control samples [1]	plasma metabolite in treated (1250 mg/kg) vs. untreated animals [2]	1250 mg vs. 0 mg (6 h) Ratio [2]	1250 mg vs. 0 mg (3 d) Ratio [2]	1250 mg vs. 0 mg (7 d) Ratio [2]	tissue levels of putrescine (mouse liver tissue; 18 hours after administration of acetaminophen)	putrescine in mouse liver tissue after treatment with acetaminophen (mouse liver tissue; mouse liver tissue)	tissue levels of putrescine (mouse liver tissue; tissue samples obtained after 6 and 12 hours)	plasma metabolite in treated (1250 mg/kg) vs. untreated animals [1]	putrescine in mouse/rat liver tissue (mouse/rat liver tissue)
CC(=O)Nc1ccc(O)cc1 [APAP, N-(4-hydroxyphenyl)acetamide, reference compound]	no statistically significant differences									
O[C@H]1[C@H](O)[C@@H](O)[C@H](O)[C@@H](O)[C@H]1O [myo-Inositol, lipid fraction, myo-inositol]		increased	1.28	1.04	1.02					
NCCCCN [Putrescine, Butane-1,4-diamine]						Elevated	increased	no elevated putrescine levels	increased	increased
Lysophosphatidylcholine (C18:1)		decreased	0.95	1.10	1.02					
NCCOP(=O)(O)O [O-Phosphoethanolamine, o-phosphoethanolamine]		increased	1.52	1.06	1.07					
